What is called vapor or sublimation pressure is the equilibrium pressure above the liquid or solid.

Several values for one entry are separate records, joined by “and”; a condition that tells them apart may be missing. Identical values can stand only once. Numbers after ± are expanded uncertainties.

For one data set the following is noted: 303.15 K; Liquid; Closed cell (Static) method.
Take `CCCOCCO` [2-propoxyethanol]: the “vapor or sublimation pressure” value stood at 0.45 ± 0.02 kPa.

For the compound `CCCCCC` [hexane], the “vapor or sublimation pressure” value came out at 25.16 ± 0.05 kPa.

As for `CCCCCCC` [heptane], the “vapor or sublimation pressure” value was 7.92 ± 0.03 kPa.

Still in this data set, the particulars now being: 313.15 K; Liquid; Closed cell (Static) method.
Turning to `CCCOCCO` [2-propoxyethanol], the “vapor or sublimation pressure” value is 0.87 ± 0.02 kPa and 0.89 ± 0.02 kPa.

Take `CCCCCC` [hexane]: the “vapor or sublimation pressure” value worked out at 37.42 ± 0.07 kPa.

For the compound `CCCCCCC` [heptane], the “vapor or sublimation pressure” value is 12.24 ± 0.03 kPa.

The same data set, now with this note: 323.15 K; Liquid; Closed cell (Static) method.
Take `CCCOCCO` [2-propoxyethanol]: the “vapor or sublimation pressure” value was 1.59 ± 0.02 kPa and 1.61 ± 0.02 kPa.

As for `CCCCCC` [hexane], the “vapor or sublimation pressure” value was found to be 54.11 ± 0.1 kPa.

`CCCCCCC` [heptane]: the “vapor or sublimation pressure” value was 18.91 ± 0.04 kPa.
